Reference: the supplement of paper PMC10307832

How the values were obtained:
Experiment in all cases: relative viability (nuclei count vs DMSO), 5 days (fraction); higher = more cells survive
[1] = compound: C1/C(=C\C2=CC=CS2)/C(=O)/C(=C/C3=CC=CS3)/C1 + Cc1nc(NC(=O)N2CCC[C@H]2C(N)=O)sc1-c1ccnc(C(C)(C)C(F)(F)F)c1 [Alpelisib] (partner 2 µM)
Outline: (§1)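 Lung cancer cell lines in 1536-well plates got either a single drug or a fixed anchor-drug dose together with five library-drug doses (not always all listed) in √10 steps, by pin tool, on the day after seeding. Nuclei were counted after 5 days, and relative viability is the treated-to-vehicle ratio of nuclei counts. Values are medians of duplicate plates.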

TPCA-1 + Trametinib = compound: C1=CC(=CC=C1C2=CC(=C(S2)NC(=O)N)C(=O)N)F [TPCA-1] + CC(=O)Nc1cccc(-n2c(=O)n(C3CC3)c(=O)c3c(Nc4ccc(I)cc4F)n(C)c(=O)c(C)c32)c1 [Trametinib] (partner 0.02 µM)
Outline: as §1

TPCA-1 + Vorinostat = compound: C1=CC(=CC=C1C2=CC(=C(S2)NC(=O)N)C(=O)N)F [TPCA-1] + O=C(CCCCCCC(=O)Nc1ccccc1)NO [Vorinostat] (partner 1 µM)
Outline: as §1

Lestaurtinib + Dasatinib = compound: C[C@]12O[C@H](C[C@]1(O)CO)n1c3ccccc3c3c4c(c5c6ccccc6n2c5c31)CNC4=O [Lestaurtinib] + Cc1nc(Nc2ncc(C(=O)Nc3c(C)cccc3Cl)s2)cc(N2CCN(CCO)CC2)n1 [Dasatinib] (partner 0.075 µM)
Outline: as §1

Cell Line	relative viability ([1]; first compound 0.2 µM)	relative viability ([1]; first compound 0.6325 µM)	relative viability ([1]; first compound 2 µM)	relative viability ([1]; first compound 6.325 µM)	relative viability ([1]; first compound 20 µM)	relative viability (TPCA-1 + Trametinib; first compound 0.04 µM)	relative viability (TPCA-1 + Trametinib; first compound 0.1265 µM)	relative viability (TPCA-1 + Trametinib; first compound 0.4 µM)	relative viability (TPCA-1 + Trametinib; first compound 1.265 µM)	relative viability (TPCA-1 + Trametinib; first compound 4 µM)	relative viability (TPCA-1 + Vorinostat; first compound 0.04 µM)	relative viability (TPCA-1 + Vorinostat; first compound 0.1265 µM)	relative viability (TPCA-1 + Vorinostat; first compound 0.4 µM)	relative viability (TPCA-1 + Vorinostat; first compound 1.265 µM)	relative viability (TPCA-1 + Vorinostat; first compound 4 µM)	relative viability (Lestaurtinib + Dasatinib; first compound 0.005 µM)	relative viability (Lestaurtinib + Dasatinib; first compound 0.01581 µM)	relative viability (Lestaurtinib + Dasatinib; first compound 0.05 µM)	relative viability (Lestaurtinib + Dasatinib; first compound 0.1581 µM)	relative viability (Lestaurtinib + Dasatinib; first compound 0.5 µM)
NCI-H650	1.2	1.19	1.19	0.935	1.05	1.08	0.857	0.948	0.862	0.813	0.414	0.402	0.41	0.308	0.27	0.405	0.397	0.301	0.315	0.232
CAL-12T	1.33	1.15	0.95	0.856	1.13	0.326	0.331	0.345	0.358	0.254	0.763	0.523	0.762	0.733	0.568	0.447	0.413	0.306	0.307	0.153
NCI-H838	1.03	0.986	0.939	0.848	0.974	0.599	0.457	0.533	0.336	0.406	0.752	0.64	0.676	0.648	0.363	0.281	0.296	0.264	0.286	0.216
NCI-H2228	0.787	0.692	0.745	0.619	0.869	0.443	0.517	0.671	0.346	0.155	0.733	0.813	0.933	0.501	0.567	0.494	0.546	0.497	0.22	0.18
RERF-LC-KJ	0.73	0.89	0.748	0.705	0.815	0.852	0.786	0.89	0.756	0.732	0.76	0.688	0.664	0.671	0.46	0.902	0.908	0.526	0.648	0.316
NCI-H661	0.611	0.792	0.838	0.515	0.7	0.67	0.541	0.535	0.573	0.377	0.739	0.759	0.806	0.754	0.483	0.99	0.953	0.851	0.81	0.319
HCC-366	0.502	0.393	0.378	0.345	0.421		0.323	0.331	0.312	0.24		0.288	0.359	0.285	0.0534	0.74	0.659	0.518	0.516	0.185
SK-LU-1	1.18	1.07	1.11	0.817	1.06	0.532	0.452	0.474	0.396	0.263	0.872	0.672	0.774	0.577	0.449	0.155	0.168	0.146	0.161	0.126
A-427	1.12	1.06	1.18	1.04	1.01	0.771	0.652	0.875	0.68	0.718	0.891	0.806	0.927	0.912	0.227	0.846	0.771	0.454	0.24	0.116
SW 1573	0.785	0.905	0.838	0.547	0.757	0.611	0.569	0.535	0.516	0.545	0.998	0.6	0.876	0.787	0.233	0.605	0.454	0.246	0.162	0.0823
NCI-H322M	0.739	0.833	0.832	0.666	0.708	0.499	0.455	0.51	0.449	0.494	0.976	0.89	0.958	0.864	0.431	0.233	0.279	0.277	0.293	0.339
LK-2	0.94	1.02	0.856	1.13	0.813	0.76	0.535	0.873	0.659	0.504	0.343	0.161	0.287	0.267	0.237	0.296	0.255	0.241	0.275	0.158
NCI-H2023	0.706	0.595	0.63	0.559	0.619	0.588	0.352	0.556	0.487	0.426	0.634	0.608	0.772	0.506	0.241	0.674	0.586	0.422	0.473	0.159
NCI-H596	0.56	0.467	0.522	0.467	0.389	0.801	0.78	0.74	0.884	0.658	0.64	0.613	0.696	0.668	0.616	0.669	0.6	0.678	0.694	0.564
SK-MES-1	1.04	0.912	0.879	0.854	0.798	0.536	0.524	0.507	0.429	0.39	1.14	1.01	0.966	1.02	0.438	0.396	0.333	0.426	0.206	0.159
NCI-H1793	0.64	0.656	0.763	0.696	0.559	0.466	0.473	0.4	0.451	0.384	0.619	0.61	0.967	0.674	0.236	0.431	0.392	0.316	0.361	0.271
